Test results published in patent publication US20140348756A1, “WATER-FREE FORMULATIONS HAVING A COOLING EFFECT” (Henkel AG & Co. KGaA, priority 2011, published 2014).

Test system: test persons
Assay: Measuring the cooling effect: antiperspirant aerosols evaluated by test persons
Type: in vivo
From the text: Measuring the Cooling Effect
Inventive antiperspirant aerosols were produced with various cooling agents and evaluated by test persons. It was shown that the cooling agent L-menthol is employable only in very small quantities, namely in quantities below 0.1 wt %, relative to the weight of the gasified aerosol formulation, corresponding to a weight fraction of 0.66 wt %, relative to the weight of the formulation, without taking into account the propellant. […] The skin compatibility in the armpit area was also worsened by menthol above 0.1 wt %, relative to the weight of the gasified aerosol formulation, corresponding to a weight fraction of 0.66 wt %, relative to the weight of the formulation, without taking into account the propellant. […] The proportion of nonresponders, 47%, was too high, however, and could not be reduced by increasing the concentration of L-menthol without the appearance of the cited inacceptable side effects.
The formulation B including 1.0 wt % of an extract of Rumex acetosa leaf in solution/suspension in isopropyl myristate with a dry substance weight of 0.5 wt %, relative to the weight of the raw material itself, was also found to be cooling by 57% of the test persons. […] The amount of dry substance of the oily Rumex acetosa leaf extract here amounted to 0.033 wt %, relative to the weight of the inventive composition without propellant. […]

CC(C)[C@@H]1CC[C@@H](C)C[C@H]1O [L-menthol]
employable quantity of the cooling agent (relative to the weight of the formulation, without taking into account the propellant): < 0.66 wt %
employable quantity of the cooling agent (relative to the weight of the gasified aerosol formulation): below 0.1 wt %
